These results are taken from patent publication US12297203B2, “Pyrrolopyrimidine ITK inhibitors” (ACLARIS THERAPEUTICS, INC., priority 2018, dated 2025).

In one test the target is ITK (Homo sapiens (Human), UniProt Q08881). The test can be described thus: ITK inhibitor binding potency (LanthaScreen competitive binding assay). Conditions: read-out: ITK Inh. IC50. A digest of the protocol: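 TR-FRET tracer displacement: 10 nM GST-ITK, 2 nM Eu-anti-GST, 50 nM tracer-236 in HEPES pH 7.5, MgCl2, 2% DMSO; 11 points, 20 µM–0.34 nM. Run with or without 2 h compound–ITK preincubation before tracer; IC50 by 4-parameter fit of emission ratio.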
ITK, sequence (Q08881 whole entry): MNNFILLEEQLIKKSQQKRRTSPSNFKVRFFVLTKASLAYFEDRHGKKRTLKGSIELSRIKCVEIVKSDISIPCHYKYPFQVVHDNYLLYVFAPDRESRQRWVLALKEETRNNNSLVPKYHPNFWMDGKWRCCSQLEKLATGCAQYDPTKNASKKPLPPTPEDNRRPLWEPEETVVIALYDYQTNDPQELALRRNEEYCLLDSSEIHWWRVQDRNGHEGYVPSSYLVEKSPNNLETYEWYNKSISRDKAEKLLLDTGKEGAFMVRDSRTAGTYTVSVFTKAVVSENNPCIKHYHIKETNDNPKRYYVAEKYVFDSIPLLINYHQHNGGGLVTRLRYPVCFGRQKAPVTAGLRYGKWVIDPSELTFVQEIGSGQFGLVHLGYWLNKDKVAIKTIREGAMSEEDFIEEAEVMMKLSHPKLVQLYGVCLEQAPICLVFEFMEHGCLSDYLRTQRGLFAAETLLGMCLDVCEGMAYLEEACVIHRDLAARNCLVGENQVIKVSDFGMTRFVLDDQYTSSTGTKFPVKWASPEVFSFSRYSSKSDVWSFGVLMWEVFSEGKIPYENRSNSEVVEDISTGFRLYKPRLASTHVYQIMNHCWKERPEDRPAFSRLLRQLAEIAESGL

The next test has as its target JAK3 (Homo sapiens (Human), UniProt P52333). The test can be described thus: JAK3 enzyme activity assay (Caliper mobility shift). It is filed as biochemical. Conditions: ATP at Km level; read-out: JAK3 Inh. IC50. A digest of the protocol: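 Caliper mobility-shift assay with 2.5 nM JAK3, […] and […] (Km level) in 20 mM HEPES pH 7.5, 10 mM MgCl2, 0.01% BSA, 0.0005% Tween-20, 2% DMSO. 11-point dose-response from […] 0.34 nM; IC50 by 4-parameter logistic fit of product/substrate signal.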

Test [1] has as its system ITK phosphorylation of its substrate, PLCγ1, at Y783. The test can be described thus: ITK target modulation assay (PLCγ1 Y783 phosphorylation, anti-CD3 stimulated Jurkat T cells). Format: cell-based. The following applies: Homo sapiens, Jurkat, anti-CD3 Dynabeads stimulation, read-out: PLC-γ Inh. IC50. A digest of the protocol: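 Jurkat cells (400,000/well) were preincubated with compound for 1 h at 37 °C (0.1% DMSO final), then stimulated with anti-CD3 Dynabeads (bead:cell 2:1). Hypotonic lysates were dot-blotted and probed for phospho-PLCγ1 Y783 and total PLCγ1, with quantification by dual-channel infrared imaging.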

The test system of test [2] is JAK1/3 phosphorylation of its substrate, STAT5, at Y694. Nature of the test: JAK1/3 target modulation assay (IL-2 stimulated STAT5 Y694 phosphorylation in PBMC). It is filed as cell-based. The following applies: Homo sapiens, PBMC, Primary human peripheral blood mononuclear cells, IL-2 25 ng/mL; read-out: IL2-STAT5 Inh. IC50. A digest of the protocol:
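Human PBMCs preincubated with compound for 1 h at 37 °C, then stimulated with IL-2 (25 ng/mL final) for 5 min. Cells were lysed and phospho-STAT5a,b (Y694) measured by MSD electrochemiluminescence immunoassay, single-plex or multiplex with total STAT5a,b.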

JAK3, sequence (P52333 781-1124): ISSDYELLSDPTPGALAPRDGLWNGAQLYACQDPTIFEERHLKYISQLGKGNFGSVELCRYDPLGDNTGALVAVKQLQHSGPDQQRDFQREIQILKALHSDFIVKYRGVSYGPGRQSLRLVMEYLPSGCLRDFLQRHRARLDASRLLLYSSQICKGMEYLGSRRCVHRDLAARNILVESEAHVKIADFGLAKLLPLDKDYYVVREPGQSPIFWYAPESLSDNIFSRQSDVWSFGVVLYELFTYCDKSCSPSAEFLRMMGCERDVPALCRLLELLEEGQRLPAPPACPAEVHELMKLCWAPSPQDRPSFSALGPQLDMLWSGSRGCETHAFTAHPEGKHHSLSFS

For `C=CC(=O)N1CC(Nc2ncnc3[nH]cc(CC4CC4)c23)CCC1CC` (centres unmarked) [Example 38, 1-(5-((5-(cyclopropylmethyl)-7H-pyrrolo[2,3-d]pyrimidin-4-yl)amino)-2-ethylpiperidin-1-yl)prop-2-en-1-one], the IC50 on ITK was no more than 10 nM; at JAK3, no more than 10 nM; in test [1], 100 to 1000 nM; in test [2] it was 100 to 1000 nM.
In the case of `C=CC(=O)N1C[C@H](Nc2ncnc3[nH]cc([C@@H]4CC4(F)F)c23)CC[C@@H]1CC` (single isomer, unassigned) [Example 68], the IC50 on ITK was no more than 10 nM; on JAK3, no more than 10 nM; in test [1] it was no more than 100 nM; in test [2], no more than 100 nM.
Consider `C=CC(=O)N1C[C@H](Nc2ncnc3[nH]cc([C@H]4[C@H](C)C4(F)F)c23)CC[C@@H]1C` (single isomer, unassigned) [Example 51], for which the half-maximal inhibitory concentration (IC50) was no more than 10 nM at ITK, no more than 10 nM at JAK3, no more than 100 nM in test [1] and no more than 100 nM in test [2].
Consider `C/C=C/C(=O)N1C[C@H](Nc2ncnc3[nH]cc([C@H]4CC4(F)F)c23)CC[C@@H]1C` (single isomer, unassigned) [Example 57], for which the IC50 is greater than 100 nM on ITK, greater than 100 nM at JAK3, greater than 1000 nM in test [1] and greater than 1000 nM in test [2].
Take `C=CC(=O)N1C[C@H](Nc2ccnc3[nH]cc(C(=O)C4CC4)c23)CC[C@@H]1C` [Example 34, 1-((2S,5R)-5-((3-(cyclopropanecarbonyl)-1H-pyrrolo[2,3-b]pyridin-4-yl)amino)-2-methylpiperidin-1-yl)prop-2-en-1-one]: the concentration for half-maximal inhibition (IC50) at ITK is no more than 10 nM; on JAK3, no more than 10 nM; in test [1], no more than 100 nM; in test [2], 100 to 1000 nM.
Consider `C=CC(=O)N1CCC(Nc2ccnc3[nH]cc(C(=O)C4CC4)c23)CC1` [Example 10, 1-(4-((3-(cyclopropanecarbonyl)-1H-pyrrolo[2,3-b]pyridin-4-yl)amino)piperidin-1-yl)prop-2-en-1-one], for which the IC50 on ITK is greater than 100 nM; on JAK3 it was greater than 100 nM; in test [1] it was greater than 1000 nM; in test [2] it was greater than 1000 nM.
Take `C=CC(=O)N1C[C@@H](Nc2ncnc3[nH]cc([C@H]4CC4(F)F)c23)CC[C@H]1CC` (single isomer, unassigned) [Example 69]: the IC50 on ITK is 10 to 100 nM; at JAK3 it was 10 to 100 nM; in test [1], 100 to 1000 nM; in test [2] it was greater than 1000 nM.
Turning to `C=CC(=O)N1C[C@H](Nc2ncnc3[nH]cc([C@H]4C[C@@H]4COC)c23)CC[C@@H]1C` (single isomer, unassigned) [Example 46], the IC50 is no more than 10 nM at ITK, no more than 10 nM on JAK3, 100 to 1000 nM in test [1] and 100 to 1000 nM in test [2].
With `C=CC(=O)N1CCC[C@@H](Nc2ncnc3[nH]cc(C(=O)C4CC4)c23)C1` [Example 5, (R)-1-(3-((5-(cyclopropanecarbonyl)-7H-pyrrolo[2,3-d]pyrimidin-4-yl)amino)piperidin-1-yl)prop-2-en-1-one], the half-maximal inhibitory concentration (IC50) is no more than 10 nM on ITK, 10 to 100 nM at JAK3, 100 to 1000 nM in test [1] and greater than 1000 nM in test [2].
For `C=CC(=O)N1C[C@@H](Nc2ncnc3[nH]cc(CC4CC4)c23)CC[C@H]1C(C)C` (single isomer, unassigned) [Example 42], the IC50 at ITK is no more than 10 nM; at JAK3, no more than 10 nM; in test [1], 100 to 1000 nM; in test [2], 100 to 1000 nM.
For the compound `C=C(C)C(=O)N1C[C@H](Nc2ncnc3[nH]cc([C@@H]4CC4(F)F)c23)CC[C@@H]1C` (single isomer, unassigned) [Example 71], the IC50 was greater than 100 nM at ITK, greater than 100 nM at JAK3, greater than 1000 nM in test [1] and greater than 1000 nM in test [2].
